Key:
BLM [1] = assay: NSG murine xenograft of BLM clones with ACT of MART-1 T cells; assay type: in vivo, mouse
Protocol: For xenograft studies, 1×10^6 D10 or BLM tumor cells were admixed with Matrigel (Corning) and injected subcutaneously into NSG-β2M^null mice (The Jackson Laboratory). Growth was monitored three times per week with calipers, and tumor size was calculated using the following formula: ½×length (mm)×width (mm). When tumors reached indicated sizes, mice were randomized over different treatment groups in a blinded fashion and were administered 5×10^6 human CD8 T cells, intravenously in the tail vein. In vivo persistence of T cells was stimulated by administering 100.000 U IL-2 (Proleukin, Novartis) intraperitoneally daily for three consecutive days. In selected experiments, birinapant (MedChem Express) was administered intraperitoneally once every three days. […] In selected experiments, the PD-1-blocking antibody nivolumab (Slotervaart Hospital) was given once weekly (5 mg/kg). For studies in immunocompetent mice, 3×10^5 D4M.3A cells were injected subcutaneously into C57BI/6J mice (Janvier) and tumor growth was monitored three times per week with calipers.
(§1) To prepare lysates, snapfrozen tumor piecesd were weighed and lysed in RIPA buffer (50 mM TRIS pH 8.0, 150 mM NaCl, 1% Nonidet P40, 0.5% sodium deoxycholate, 0.1% SDS) supplemented with complete protease inhibitor cocktail (Roche Applied Science) and phosphatase inhibitors 10 mM NaF, 1 mM Na3VO4, 1 mM sodium pyrophosphate and 10 mM beta-glycerophosphate. Protein concentration was determined using a Bradford Protein Assay (Biorad).

D10 = assay: NSG murine xenograft of D10 cells with adoptive cell transfer; assay type: in vivo, mouse; conditions: anti-TNF antibody injected (FIG. 4C, D)
Protocol: For xenograft studies, 1×10^6 D10 or BLM tumor cells were admixed with Matrigel (Corning) and injected subcutaneously into NSG-β2M^null mice (The Jackson Laboratory). Growth was monitored three times per week with calipers, and tumor size was calculated using the following formula: ½×length (mm)×width (mm). When tumors reached indicated sizes, mice were randomized over different treatment groups in a blinded fashion and were administered 5×10^6 human CD8 T cells, intravenously in the tail vein. In vivo persistence of T cells was stimulated by administering 100.000 U IL-2 (Proleukin, Novartis) intraperitoneally daily for three consecutive days. In selected experiments, birinapant (MedChem Express) was administered intraperitoneally once every three days. Birinipant was formulated at 3 mg/ml in 12.5% captisol (CyDex Pharmaceuticals) in water adjusted to pH 4 with hydrochloric acid. […] In selected experiments, the PD-1-blocking antibody nivolumab (Slotervaart Hospital) was given once weekly (5 mg/kg). For studies in immunocompetent mice, 3×10^5 D4M.3A cells were injected subcutaneously into C57BI/6J mice (Janvier) and tumor growth was monitored three times per week with calipers.

D10 melanoma cells = assay: T cell cytotoxicity assay with MART-1 T cells; assay type: cell-based, human
Protocol: (§2) 1.2×10^5 tumor cells were seeded per well in 12-well culture plates (Greiner). CD8 T cells were admixed in serial dilutions (two-fold, starting at a 1:1 ratio). After 24 hours, T cells were washed away. After a further 4 days, plates were fixed and stained for 1 hour using a crystal violet solution containing 0.1% crystal violet (Sigma) and 50% methanol (Honeywell). For quantification, remaining crystal violet was solubilized in 10% acetic acid (Sigma). Absorbance of this solution was measured on an Infinite 200 Pro spectrophotometer (Tecan) at 595 nm. In select experiments, tumor viability data was assessed with CellTiter-Blue (Promega) following manufacturer's instructions. In indicated experiments, 1 uM of birinapant (Selleck Chemicals) in DMSO (Sigma) was added during co-cultures. For Incucyte (Incucyte Zoom, Essen Bioscience) experiments, 5×10^3 tumor cells were seeded per well in 96-well culture plates (Greiner). CD8 T cells were admixed in indicated ratios and a Caspase-3/7 dye (Essen Bioscience) was added. Growth of these co-cultures was followed for 48 hours. […] In indicated experiments, enavatuzumab (indicated concentrations; Creative Biolabs) in the presence or absence of protein G (50 μg/mL; Thermo Fisher Scientific) was added. To cluster enavatuzumab, cells were pretreated for 1 hour with enavatuzumab, then protein G was added for a further 7 hours. Then, CD8 T cells were added to the tumor cells for a further 16 hours.

[2] = system: panel of 11 human melanoma and lung cancer cell lines; assay: MART-1 T cell cytotoxicity assay in a panel of tumor cell lines; assay type: cell-based
Protocol: as §2, with “Then, CD8 T cells were added to the tumor cells for a further 16 hours.” left out

SK-MEL-23 = assay: Caspase-3/7 dye tumor cell apoptosis after MART-1 T cell attack, SK-MEL-23; assay type: cell-based, human; conditions: combined with TRAF2 inactivation; neutralizing TNF antibody (FIG. 6B)
Protocol: as §2, with “Then, CD8 T cells were added to the tumor cells for a further 16 hours.” left out

cIAP1/2 = conditions: Benetatos et al., 2014; FIG. 11C; cited from earlier work
BLM [3] = assay: T cell cytotoxicity assay of BLM clones; assay type: cell-based, human; conditions: wildtype and TRAF2-deficient BLM clones in vitro (FIG. 11F)
Protocol: as §2, with “Then, CD8 T cells were added to the tumor cells for a further 16 hours.” left out

TRAF2 = assay: Western blot analysis of TRAF2 in treated D10 melanoma cells; assay type: cell-based, human
Protocol: 1.2×10^5 tumor cells were seeded per well in 12-well culture plates (Greiner). CD8 T cells were admixed in serial dilutions (two-fold, starting at a 1:1 ratio). After 24 hours, T cells were washed away. After a further 4 days, plates were fixed and stained for 1 hour using a crystal violet solution containing 0.1% crystal violet (Sigma) and 50% methanol (Honeywell). For quantification, remaining crystal violet was solubilized in 10% acetic acid (Sigma). Absorbance of this solution was measured on an Infinite 200 Pro spectrophotometer (Tecan) at 595 nm. In select experiments, tumor viability data was assessed with CellTiter-Blue (Promega) following manufacturer's instructions. In indicated experiments, 1 uM of birinapant (Selleck Chemicals) in DMSO (Sigma) was added during co-cultures. […]
as §1, with “Cells” for “To prepare lysates, snapfrozen tumor piecesd”, “were” for “were weighed and”, “(Biorad). […] Western blots were then incubated in SuperSignal West Dura Extended Duration Substrate (Thermo Scientific) and luminescence was captured on high performance autoradiography films (Amersham). […]” for “(Biorad).”

[4] = system: panel of 38 human tumor cell lines; conditions: cited from earlier work

## anti-PD-1: PD-1-blocking antibody nivolumab given once weekly (5 mg/kg)
BLM [1]; anti-PD-1 added to TRAF2 KO plus birinapant (FIG. 6E)
  tumor control and overall survival: superior tumor control, improving overall survival
BLM [1]; anti-PD-1 alone, wildtype BLM tumors (FIG. 6E)
  rejection of tumors: failed to affect rejection of VVT tumors
BLM [1]; non-responding setting (FIG. 11I)
  intratumoral TNF after ICB: failed to see an upregulation of TNF after ICB

## infliximab: TNF blocking antibody
D10
  tumor control of TRAF2-deficient tumors after ACT with MART-1 T cells: this tumor control was dependent on TNF

## CC[C@H](NC(=O)[C@H](C)NC)C(=O)N1C[C@@H](O)C[C@H]1Cc1c(-c2[nH]c3cc(F)ccc3c2C[C@@H]2C[C@H](O)CN2C(=O)[C@H](CC)NC(=O)[C@H](C)NC)[nH]c2cc(F)ccc12 [birinapant, (2S)—N-[(2S)-1-[(2R,4S)-2-[[6-fluoro-2-[6-fluoro-3-[[(2R,4S)-4-hydroxy-1-[(2S)-2-[[(2S) (methylamino)propanoyl]amino]butanoyl]pyrrolidin-2-yl]methyl]-1H-indol-2-yl]-1H-indolyl]methyl]-4-hydroxypyrrolidin-1-yl]-1-oxobutan-2-yl]-2-(methylamino)propanamide]
BLM [1]; TRAF2 KO tumors treated with birinapant (FIG. 6E)
  tumor control: better tumor control when compared to control tumors
BLM [1]; TRAF2 genetic inactivation plus birinapant, ACT with MART-1 T cells (FIG. 6D)
  tumor volume and survival: induced both a reduction in tumor volume and extended survival
D10 melanoma cells; D10 cells sgCtrl or sgTRAF2, with or without birinapant (FIG. 11D)
  sensitivity to T cell killing in combination with TRAF2 inactivation: synergized with TRAF2 inactivation in inducing sensitivity to T cell killing
[2]; MART-1 T cell cytotoxicity assay, p<0.001 (FIG. 6A)
  tumor cell survival, sgTRAF2+DMSO vs. sgTRAF2+Bir: significant for all cell lines
[2]; all tested tumor cell lines (FIG. 6A)
  sensitivity to T cell killing in combination with TRAF2 deletion: strong synergy between TRAF2 deletion and pharmaceutical targeting of cIAP1/2 in all tested tumor cell lines
SK-MEL-23
  sensitivity to T cell-derived TNF: induced a de novo sensitivity to T cell-derived TNF in SK-MEL-23
cIAP1/2
  degradation of BIRC2/3 protein products (cIAP1/2): known to degrade both BIRC2/3 protein products
BLM [3]
  response to T cells, TRAF2 deletion plus cIAP1/2 inhibition: synergistic response

B1: enavatuzumab: agonistic anti-Fn14 antibody (Creative Biolabs) (antibody, chains of the INN, looked up, V domains shown)
VH: EVQLVESGGGLVQPGGSLRLSCAASGFTFSSYWMSWVRQAPGKGLEWVAEIRLKSDNYATHYAESVKGRFTISRDDSKNSLYLQMNSLRAEDTAVYYCTGYYADAMDYWGQGTLVTVSS
VL: DIQMTQSPSSLSASVGDRVTITCRASQSVSTSSYSYMHWYQQKPGKAPKLLIKYASNLESGVPSRFSGSGSGTDFTLTISSLQPEDFATYYCQHSWEIPYTFGGGTKVEIK
D10 melanoma cells; clustered with protein G, D10 and SK-MEL-147, 1:8 T cell:tumor cell ratio (FIG. 3J, 9C)
  sensitivity to T cell cytotoxicity: induced sensitivity to T cell cytotoxicity in two melanoma cell lines
D10 melanoma cells; neutralization with anti-TNF antibody (FIG. 9D)
  dependence of sensitization on T cell-derived TNF: dependent on T cell-derived TNF
D10 melanoma cells; wildtype or TRAF2-deficient tumor cells (FIG. 3J)
  dependence of sensitization on TRAF2: sensitization by enavatuzumab was dependent on TRAF2
TRAF2; D10 melanoma cells treated 8 hours, presence or absence of protein G (FIG. 3I)
  degradation of TRAF2: caused degradation of TRAF2, but only upon receptor clustering by the addition of protein G

B2: Fn14 agonistic antibody: humanized anti-Fn14 agonistic antibody described by Michaelson et al. (2011) (antibody, chains of the INN, looked up, V domains shown)
VH: B1 VH
VL: B1 VL
[4]
  cell lines with growth inhibition: approximately 50%

B3: TWEAK: ligand of Fn14 (TNF-like weak inducer of apoptosis); recombinant TWEAK (Peprotech) (protein)
chain: SAPKGRKTRARRAIAAHYEVHPRPGQDGAQAGVDGTVSGWEEARINSSSPLRYNRQIGEFIVTRAGLYYLYCQVHFDEGKAVYLKLDLLVDGVLALRCLEEFSATAASSLGPQLRLCQVSGLLALRPGSSLRIRTLPWAHLKAAPFLTYFGLFQVH
D10 melanoma cells; 250 ng/mL TWEAK during exposure to MART-1 T cells (FIG. 3H)
  sensitization of tumor cells to T cell killing: sensitized tumor cells to T cell killing
TRAF2; D10 melanoma cells treated 8 hours with recombinant human TWEAK (FIG. 3G)
  degradation of TRAF2: led to the degradation of TRAF2
